Data: patent US20100068297A1, “Antimicrobial Composition” (NATURE THERAPEUTICS LIMITED, priority 2006, published 2010)
“And” between values parts separate entries of the source, which are not always exact repeats. Equal entries are not always repeated.

Columns and labels:
Pseudomonas aeruginosa = test: In vitro bactericidal assay, control strain; format: cell-based; conditions: metal ion added to PRE
Experimental: The control strain was Pseudomonas aeruginosa for standard experimentation, ie determining optimal preparations.
Growth conditions: on nutrient agar provided by Oxoid Ltd for 24 hrs at 37° C.
The inventor established a functional in vitro bactericidal assay to screen a variety of formulations (cream, aqueous and ointment). This assay involved adding 0.5 g of ointment to 10 ml of water and vortexing prior to a standard suspension test using 50 microlitres of bacterial cell suspension to a turbidity of 0.5 McFarland solution (bacterial cell suspension equal to 1.5×10^8) plus 100 microlitres of the ointment solution. After incubation in the dark at room temperature for 30 mins, serial dilutions (from 10^−1 to 10^−5) were carried out on nutrient agar.
In terms of mechanisms of action, the preference for using metal ions in the reduced state led to the incorporation of studies using reductants to stabilize this oxidation state, and prolong and enhance activity. Thus, the reductant Vitamin C was added in three different doses after pre-incubating the PRE/metal ions mixtures for 30 minutes, and the results are shown in FIG. 2.
The longer term activities of the PRE:metal salt(s) mixtures were investigated after a period of 24 and 48 hours, and the results are shown in FIG. 4. […] The results shown are for one system only as an example.

E. coli = test: Suspension assay, 30 minutes exposure, viable count; format: cell-based; conditions: no Vitamin C
Experimental: All reagents were purchased from Sigma-Aldrich (Poole, Dorset) and distilled water was used throughout. Overnight cultures on nutrient agar were then suspended in Ringer's solution (Oxoid, U.K.) to a turbidity equivalent to 0.5 McFarland (1.5×10^8 CFU/ml). […] The final solution was protected from light (Stewart et al. 1998. J. Appl Microbiol 84:777-783). The appropriate bacterial dilution was prepared and 50 μl placed in a sterile Eppendorf micro-centrifuge tube with a 100 μl of the extract/metal salt solution. […] Serial dilutions were prepared in Ringer's solution (10^−5), 10 μl of each dilution is spotted on nutrient agar plate and incubated for 24 hours at 37° C. Each assay was conducted in triplicate. The assay was carried out as described above with the following addition: […]

[1] = test system: ESβL Pseudomonas aeruginosa clinical isolates; test: Suspension test, aqueous preparations, 30 minutes; format: cell-based; conditions: no Vitamin C, nine isolates, listed as Cu(II)
Experimental: P. aeruginosa isolates were removed from the freezer and first passaged on nutrient agar twice before use. Overnight cultures on nutrient agar were then suspended in Ringer's solution (Oxoid, U.K.) to a turbidity equivalent to 0.5 McFarland (1.5×10^8 CFU/ml).
The appropriate bacterial dilution was prepared and 50 μl placed in a sterile Eppendorf micro-centrifuge tube with a 100 μl of the extract/metal salt solution. After exposure of the bacteria for 30 minutes at room temperature, the activity of the bactericidal agent was neutralized by adding an equal volume of 2% (v/v) Tween-80 (Sigma Chemical Co., UK) in Lambda buffer (Stewart et al. 1998). Serial dilutions were prepared in Ringer's solution (10^−5), 10 μl of each dilution is spotted on nutrient agar plate and incubated for 24 hours at 37° C. Each assay was conducted in triplicate.
The assay was carried out as described above with the following addition: Vitamin C was added to the metal ion solution immediately prior to mixing with the PRE. Aliquots of Vitamin C were made to give final metal ion:Vitamin C ratios (and Vitamin C concentrations) of 1:1 (4.8 mM), 1:5 (24 nM), 1:20 (96 mM) (metal salt:Vitamin C). 700 μl of this solution was then added to PRE.

Staph. aureus = test: Tea extracts with metal salts, suspension assay 30 min; format: cell-based, Staphylococcus aureus; conditions: Lambda buffer control
Experimental: (§1) Tea infusions were prepared as previously with boiling sterilized distilled water. After 10 minutes, the extracts are removed from the beaker into sterilized universal tubes. The pH of these extracts was neutralized using a 1 M NaOH solution. The extracts are refrigerated, used within 4 days and without further treatment. Overnight cultures of the Gram-positive strain (Staph. aureus) and the Gram-negative strains (Ps. aeruginosa and Prot. mirabilis) were suspended in Ringers solution to a turbidity equivalent to 0.5 McFarland (1.5×10^8 CFU/ml). Metal salts were added to the optimum tea extracts immediately before the assay was conducted. […] The appropriate bacterial dilution was prepared and 50 μl of that was placed in a sterile Eppendorf micro-centrifuge tube with a 100 μl of the extract/metal salt solution. […] Serial dilutions were prepared in Ringer's solution, 10 μL aliquots of each dilution were spotted onto nutrient agar plates and incubated aerobically for 24 hours at 37° C. Each assay was conducted in triplicate.

MRSA = test: Micro-dilution MIC, alone and in combination; format: cell-based, Staphylococcus aureus; conditions: each table line is a group of isolates; 24 h
Experimental: The plates were prepared as follows, 50 μl of four-times strength Iso-Sensitest broth was added to the first row of wells and 50 μl of double strength Iso-Sensitest broth was added to all remaining wells. To the first row of wells 50 μl of the PRE was added and mixed, 50 μl of broth from row A was transferred to row B and mixed, this process was continued to row E Finally, 50 μl of broth was removed from well F and discarded. Then the overnight cultures were suspended in Ringers solution to a turbidly of 0.5 McFarland (1.5×10^8 cfu/ml). 50 μl of suspension were added to well A (final concentration of PRE in well A=200 mg/ml) through to G All samples were carried out in Triplicate. All plates were incubated at 37° C. for 24 hours. After incubation 10 μl of broth from each well was spotted onto nutrient agar and incubated at 37° C. for 24 hours. After incubation the plates were examined to determine breakpoints by the presence or absence of growth.

Ps. aeruginosa = test: Tea extracts with metal salts, suspension assay 30 min; format: cell-based, Pseudomonas aeruginosa; conditions: Lambda buffer control
Experimental: as §1

Prot. mirabilis = test: as above; format: cell-based, Proteus mirabilis; conditions: Lambda buffer control
Experimental: as §1

PVL positive cMRSA = test: Suspension test, 2 hours, clinical isolates; format: cell-based, Staphylococcus aureus; conditions: 2 hours exposure, 10 clinical isolates
Experimental: Clinical isolates of methicillin resistant (n=10), methicillin sensitive (n=10) Staphylococcus aureus (MRSA and MSSA) and Panton-Valentine Leukocidin producing cMRSA (n=10) were used in the study. The MRSA and MSSA isolates were collected from the Royal Marsden Hospital (London, UK) and the cMRSA isolates were collected from the Devon and Exeter Hospital (UK). The isolates were cultured over night on nutrient agar (Oxoid), aerobically at 37° C. and then frozen in cyrovials (Pro-labs) at −80° C. until required. Prior to use all isolates were passaged twice on nutrient agar aerobically at 37° C. In all assays culture were prepared by using overnight cultures on nutrient agar that were then suspended in Ringer's solution (Pro-Lab, U.K.) to a turbidity equivalent to 0.5 McFarland (1.5×10^8 cfu ml^−1).
Briefly, overnight cultures on nutrient agar were then suspended in Ringer's solution (Oxoid, U.K.) to a turbidity equivalent to 0.5 McFarland (1.5×10^8 CFU/ml).
The appropriate bacterial dilution was prepared and 50 μL it placed in a sterile Eppendorf micro-centrifuge tube with a 100 μL of the extract/metal salt solution. Following treatment of the bacteria for 2 hours at room temperature, the activity of the bactericidal agent was neutralized by adding an equal volume of 2% (v/v) Tween-80 (Sigma Chemical Co., UK) in Lambda buffer. […]

Row | SMILES | activity of the metal ion solution upon addition to PRE (Pseudomonas aeruginosa) | reduction of surviving population / growth, factor compared to the buffer (E. coli) | reduction in growth (mean values) [1] | bactericidal efficacy, reduction in CFU/mL (factor) (Staph. aureus) | MIC, agent alone (MRSA) | bactericidal efficacy, reduction in CFU/mL (factor) (Ps. aeruginosa) | bactericidal efficacy, reduction in CFU/mL (factor) (Prot. mirabilis) | isolates in which the 10^3 log reduction in growth was observed (PVL positive cMRSA) [%] | reduction in growth (PVL positive cMRSA)
1 | O=S(=O)([O-])[O-].[Cu+2] [CuSO4, copper (II) sulfate] | highest activities | 10^4 | ~10^1 log10 and ~10^2 log10 | 10^4 | 3125 µg/mL and 1563 µg/mL | 10^2 | 10^2 | 60 | 10^3 log10
2 | O=S(=O)([O-])[O-].[Fe+2] [FeSO4, iron (II) sulfate] | highest activities |  |  | poor efficacy |  | 10^3 | 10^3 |  | 
3 | O=S(=O)([O-])[O-].[Mn+2] [MnSO4] | little or no activity |  |  | poor efficacy |  | minimal | minimal |  | 
4 | O=S(=O)([O-])[O-].[Zn+2] [ZnSO4] | little or no activity |  |  |  |  |  |  |  | 
